Source: ChEMBL document CHEMBL1201862, “PubChem BioAssay data set” (2004)
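Protocol summary: plate cells (96-well), add compound at 5 concentrations, incubate 48 h, interpolate endpoints linearly. The concentration for 50% growth inhibition is given as GI50.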 Active and inactive are the calls of the source. No stated cut-off is given here; in the data, active = GI50 up to about 1.1 µM and inactive = higher.

Assays:
Assay in all cases: growth of human tumour cells (NCI), 48 h
A549 = tested on: A549
CAKI-1 = tested on: CAKI-1
EKVX = tested on: EKVX
HCC 2998 = tested on: HCC 2998
HCT-116 = tested on: HCT-116
Hs-578T = tested on: Hs-578T
M14 = tested on: M14
MDA-MB-231 = tested on: MDA-MB-231
MDA-MB-435 = tested on: MDA-MB-435
MDA-N = tested on: MDA-N
NCI-H23 = tested on: NCI-H23
OVCAR-3 = tested on: OVCAR-3
OVCAR-8 = tested on: OVCAR-8
SF-268 = tested on: SF-268
SK-MEL-2 = tested on: SK-MEL-2
SNB-75 = tested on: SNB-75
SW-620 = tested on: SW-620
UO-31 = tested on: UO-31
BT-549 = tested on: BT-549

Compound | GI50 (A549) | GI50 (CAKI-1) | GI50 (EKVX) | GI50 (HCC 2998) | GI50 (HCT-116) | GI50 (Hs-578T) | GI50 (M14) | GI50 (MDA-MB-231) | GI50 (MDA-MB-435) | GI50 (MDA-N) | GI50 (NCI-H23) | GI50 (OVCAR-3) | GI50 (OVCAR-8) | GI50 (SF-268) | GI50 (SK-MEL-2) | GI50 (SNB-75) | GI50 (SW-620) | GI50 (UO-31) | GI50 (BT-549)
CC(=O)c1ccc2c(c1)CC1(C2)Cc2cc3c(cc2C1)C(=O)CC3 (stereo unspecified) | 0.792 µM (active) | 2.03 µM (inactive) | 6 µM (inactive) | 0.91 µM (active) | 2.1 µM (inactive) | 5.73 µM (inactive) | 2 µM (inactive) | 2.51 µM (inactive) | 0.242 µM (active) | 0.207 µM (active) | 3.06 µM (inactive) | 0.493 µM (active) | 3.49 µM (inactive) | 3.15 µM (inactive) | 0.356 µM (active) | 32 µM (inactive) | 0.681 µM (active) | 9.53 µM (inactive) | 
O=c1[nH]c2cc(F)c(F)cc2nc1Cc1ccccc1 |  | > 100 µM (inactive) | > 100 µM (inactive) | > 100 µM (inactive) | > 100 µM (inactive) | > 100 µM (inactive) | > 100 µM (inactive) | > 100 µM (inactive) | > 100 µM (inactive) |  | > 100 µM (inactive) |  | > 100 µM (inactive) | > 100 µM (inactive) | > 100 µM (inactive) | > 100 µM (inactive) | > 100 µM (inactive) | > 100 µM (inactive) | > 100 µM (inactive)
Cn1c2c(c3ccccc31)CCN1C(=O)CN(C(=O)C3CCCCC3)CC21 (stereo unspecified) | > 100 µM (inactive) |  | > 100 µM (inactive) | > 100 µM (inactive) | > 100 µM (inactive) | > 100 µM (inactive) | > 100 µM (inactive) | > 100 µM (inactive) | > 100 µM (inactive) | > 100 µM (inactive) | > 100 µM (inactive) | > 100 µM (inactive) | > 100 µM (inactive) | > 100 µM (inactive) | > 100 µM (inactive) | > 100 µM (inactive) | > 100 µM (inactive) | > 100 µM (inactive) | 
N#CCc1nc(-c2cc3c(ccc4ccccc43)oc2=O)cs1 | 50 µM (inactive) | 50.1 µM (inactive) | 20.3 µM (inactive) | 69.3 µM (inactive) | 54.3 µM (inactive) | 20.3 µM (inactive) | 99.1 µM (inactive) | 17.9 µM (inactive) | > 100 µM (inactive) |  |  |  | 28.5 µM (inactive) | 31.6 µM (inactive) | 23.1 µM (inactive) | 0.507 µM (active) | 91.8 µM (inactive) | 38.9 µM (inactive) | 17.1 µM (inactive)
CC1CCN(CCC(=O)CC(c2ccccc2)c2c(O)c3ccccc3oc2=O)CC1 (stereo unspecified) | > 100 µM (inactive) | > 100 µM (inactive) | > 100 µM (inactive) |  | > 100 µM (inactive) |  | > 100 µM (inactive) |  |  |  | > 100 µM (inactive) | > 100 µM (inactive) | > 100 µM (inactive) | > 100 µM (inactive) | > 100 µM (inactive) | 82.8 µM (inactive) | > 100 µM (inactive) | > 100 µM (inactive) | 
O=C(NC(=S)NC(=O)c1cc(O)c(O)c(O)c1)c1cc(O)c(O)c(O)c1 | 37.1 µM (inactive) | 21.1 µM (inactive) |  | 31 µM (inactive) | 20.4 µM (inactive) |  | 32.1 µM (inactive) | 28.8 µM (inactive) | 7.93 µM (inactive) | 2.65 µM (inactive) | 23.7 µM (inactive) |  | 20.7 µM (inactive) | 31.1 µM (inactive) | 20.1 µM (inactive) |  | 27.7 µM (inactive) | 22.4 µM (inactive) | 
O=S1(=O)C(c2ccccc2)=C(O)c2ccccc21 | > 100 µM (inactive) |  | > 100 µM (inactive) | > 100 µM (inactive) | > 100 µM (inactive) | > 100 µM (inactive) | > 100 µM (inactive) | 7.91 µM (inactive) | > 100 µM (inactive) |  | > 100 µM (inactive) | > 100 µM (inactive) | > 100 µM (inactive) | > 100 µM (inactive) | > 100 µM (inactive) | > 100 µM (inactive) | > 100 µM (inactive) | > 100 µM (inactive) | > 100 µM (inactive)
